Columns and labels:
[1] = O/W emulsion, substantivity on skin model (water resistance, watering test); format: physicochemical, sheep; conditions: amount found after 20 min watering relative to unwatered sample, isopropanol extract, GC, converted to the logarithm
Method: (§1) The amounts of the cosmetic auxiliaries found in the phase to be cared for are compared with the amount found in the cosmetic phase (relative partition parameters). These values are converted to the logarithm and entered as activity values into the regression table (Table 1). Using various methods, regression against the COSMO-RS and other descriptors (e.g. clogP and boiling point) are carried out, and the best correlation according to the validation is selected. In all of the regression equations belonging to the examples, cosmetic auxiliaries with a deviation in the regression of more than +/−0.43 log units from the experimental value are defined as outliers. […] In the next step, the COSMO-RS regression equation is linked to the regression table which contains all descriptors for all cosmetic auxiliaries. The use of the COSMO-RS regression equation on all cosmetic auxiliaries gives the prediction for the logarithmic relative partition parameters for all cosmetic auxiliaries. These values are then used for the manufacture of cosmetic products. The procedure is analogous in all examples.
(§2) The example reflects the substantivity of a sunscreen emulsion. The emulsion is applied to a skin model (sheep shorn wool, because of the content of wool grease), and the substantivity thereto is tested using a watering test. The emulsion is prepared in the generally customary manner. The UV filters and a mixture of 39 odorants are incorporated in accordance with the formulations. 0.10 g of this emulsion is applied to a section of the skin model 5×10 cm in size. After drying for 30 min, the sample is stirred for 20 min in 4.5 l of water at room temperature. The sample is left to dry for 12 hours and then boiled for 10 min with 60 ml of isopropanol in a closed system. The extract is transferred to a measuring flask and made up to 100 ml. 0.10 g of the emulsion is applied to another section of the skin model. After drying for 12 hours, it is extracted with isopropanol as above. The extracts are injected in equal amounts one after the other into a GC injector, and gas chromatograms are recorded. The amounts of the UV filters and odorants found in the extracts are compared with one another (relative partition parameters). The analytical results are then used mathematically as described above.

[2] = W/O emulsion, substantivity on skin model (water resistance, watering test); format: physicochemical, sheep; conditions: amount found after 20 min watering relative to unwatered sample, isopropanol extract, GC, converted to the logarithm
Method: as §1, §2

Row | Structure (SMILES) | Activity (logarithmic partition parameter for substantivity on a skin model) [1] | Activity (logarithmic partition parameter for substantivity on a skin model) [2]
1 | O=C(OCc1ccccc1)c1ccccc1O [Benzyl salicylate] | −0.1300 | −0.1480
2 | C=C1C2CCC(C2)C1(C)C (centres unmarked) [Camphene] | – | −0.2420
3 | C[C@@H]1CC[C@H]2C(C)(C)[C@H]3C[C@@]12CC[C@@]3(C)O [Cedrol] | −0.0320 | −0.0111
4 | CC(=O)O[C@]1(C)CC[C@@]23C[C@@H]1C(C)(C)[C@@H]2CC[C@H]3C [Cedryl acetate] | −0.0330 | −0.0170
5 | O=C1CCCCCCCCCCCC(=O)OCCO1 [Ethylene brassylate] | 0.0010 | −0.0476
6 | CCCCCC/C(C=O)=C\c1ccccc1 [Hexylcinnamaldehyde, alpha] | −0.1250 | −0.1399
7 | CC(=O)/C=C/C1C(C)=CCCC1(C)C (stereo not drawn) [Ionone alpha] | – | −0.0120
8 | CC(=O)/C=C/C1=C(C)CCCC1(C)C [Ionone, beta] | – | 0.1556
9 | CC(C)CCOC(=O)c1ccccc1O [Isoamyl salicylate] | −0.0960 | −0.2740
10 | CC(C=O)Cc1ccc(C(C)(C)C)cc1 (centres unmarked) [Lilial] | −0.1280 | −0.2120
11 | COc1ccc(C(=O)c2ccccc2)c(O)c1 [Neo Heliopan ® BB, Benzophenone-3] | −0.1595 | −0.2689
12 | COc1ccc(C=CC(=O)OCCC(C)C)cc1 [Neo Heliopan ® E1000, Isoamyl p-Methoxycinnamate] | −0.0762 | −0.2128
13 | CC1CC(OC(=O)c2ccccc2O)CC(C)(C)C1 (centres unmarked) [Neo Heliopan ® HMS, Homosalate] | −0.1571 | −0.2733
14 | CC1CCC(C(C)C)C(OC(=O)c2ccccc2N)C1 (centres unmarked) [Neo Heliopan ® MA, Menthyl anthranilate] | −0.1314 | −0.2300
15 | Cc1ccc(C=C2C(=O)C3(C)CCC2C3(C)C)cc1 (centres unmarked) [Neo Heliopan ® MBC, 4-Methylbenzylidene Camphor] | −0.0966 | −0.2018
16 | COc1ccc(C(=O)CC(=O)c2ccc(C(C)(C)C)cc2)cc1 [Neo Heliopan ® NH 357] | −0.1922 | −0.1879
17 | CCCCC(CC)COC(=O)c1ccccc1O (centres unmarked) [Neo Heliopan ® OS, 2-Ethylhexylsalicylate] | −0.1464 | −0.2497
18 | CC1=CCC2CC1C2(C)C (stereo not drawn) [alpha-Pinene] | – | −0.2470

— patent US20020146441A1, “Selection method for cosmetic auxiliaries” (priority 2000, published 2002)
